In patent publication US20120202856A1, “SUBSTITUTED BENZIMDAZOLE DERIVATIVES USEFUL AS TRPM8 RECEPTOR MODULATORS” (priority 2011, published 2012):
“And” between values parts separate entries of the source, which are not always exact repeats. Equal entries are not always repeated. Structures can show the parent of a compound that is named as a salt. Where two headings read alike, the source gives them in different places.

Biological target: T1, canine TRPM8 (Canis lupus familiaris, UniProt Q1A7N1)
T1 construct: expressed in transfected cells
Assay: In Vitro Canine TRPM8 Functional Assay (intracellular Ca2+ fluorescence, icilin activation, HEK293 cells)
Format: cell-based
Details: for inhibition at 0.2 µM / % Inh (%) @0.2 μM, in vitro TRP M8 Activity: individually measured values; for IC50: HEK293 cells expressing canine TRPM8, icilin activation, individually measured values (batches/salt forms), read-out: IC50 (nM), in vitro TRP M8 Activity; for % Inh (%) @0.2 μM, in vitro TRP M8 Activity: 0.2 μM test compound
Method in brief: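 HEK293 cells expressing canine TRPM8 loaded with Calcium 3 dye, then stimulated with icilin; intracellular Ca2+ rise read on FLIPR or FDSS. Peak fluorescence minus basal normalized to percent maximal response; IC50 from sigmoidal nonlinear regression of quadruplicate wells.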

[1] = HEK293, 0.2 μM test compound, read-out: % Inh (%) @0.2 μM, in vitro TRP M8 Activity
[2] = HEK293, read-out: % Inh (%) @0.2 μM, in vitro TRP M8 Activity, 0.2 μM test compound

T1 sequence (Q1A7N1 1-1104): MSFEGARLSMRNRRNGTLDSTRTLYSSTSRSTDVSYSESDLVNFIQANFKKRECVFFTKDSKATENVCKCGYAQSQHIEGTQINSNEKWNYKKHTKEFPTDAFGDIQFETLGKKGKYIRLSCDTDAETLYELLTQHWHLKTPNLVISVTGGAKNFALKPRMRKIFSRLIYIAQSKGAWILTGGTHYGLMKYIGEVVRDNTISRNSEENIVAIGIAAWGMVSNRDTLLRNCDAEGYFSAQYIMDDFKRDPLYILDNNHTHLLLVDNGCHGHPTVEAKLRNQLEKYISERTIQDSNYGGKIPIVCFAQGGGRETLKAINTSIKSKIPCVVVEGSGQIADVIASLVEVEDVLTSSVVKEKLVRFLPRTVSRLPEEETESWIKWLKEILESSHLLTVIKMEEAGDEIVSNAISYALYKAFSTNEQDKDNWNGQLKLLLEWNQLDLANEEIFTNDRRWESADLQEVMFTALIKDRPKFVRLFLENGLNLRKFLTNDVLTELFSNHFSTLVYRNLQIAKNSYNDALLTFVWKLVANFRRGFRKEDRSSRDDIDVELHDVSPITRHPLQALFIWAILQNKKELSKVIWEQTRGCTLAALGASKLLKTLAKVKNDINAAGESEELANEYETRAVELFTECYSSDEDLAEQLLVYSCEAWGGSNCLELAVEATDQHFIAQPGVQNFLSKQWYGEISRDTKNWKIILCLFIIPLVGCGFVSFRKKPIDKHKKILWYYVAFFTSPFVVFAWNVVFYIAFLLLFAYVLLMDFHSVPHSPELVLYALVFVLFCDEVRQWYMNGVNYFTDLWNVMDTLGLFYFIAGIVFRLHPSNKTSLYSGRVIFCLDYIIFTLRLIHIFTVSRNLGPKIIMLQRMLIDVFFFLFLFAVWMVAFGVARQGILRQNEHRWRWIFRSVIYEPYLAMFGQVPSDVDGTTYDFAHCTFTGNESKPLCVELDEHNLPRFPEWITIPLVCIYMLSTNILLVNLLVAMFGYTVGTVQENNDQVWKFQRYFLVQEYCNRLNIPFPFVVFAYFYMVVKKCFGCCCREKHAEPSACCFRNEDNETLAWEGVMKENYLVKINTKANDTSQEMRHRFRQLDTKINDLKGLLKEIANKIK

SMILES | inhibition at 0.2 µM [1] [%] | IC50 | other results
CC(C)(C)c1cc(-c2nc3cc(-c4ccccc4Cl)cc(C(F)(F)F)c3[nH]2)on1 [Compound 141, 2-(3-tert-Butyl-isoxazol-5-yl)-5-(2-chloro-phenyl)-7-trifluoromethyl-1H-benzimidazole hydrochloride] | 99 | 5.4 nM and 8.7 nM | –
CC(C)(C)c1cc(-c2nc3cc(-c4ccccc4C(F)(F)F)cc(C(F)(F)F)c3[nH]2)on1 [Compound 142, 2-(3-tert-Butyl-isoxazol-5-yl)-7-trifluoromethyl-5-(2-trifluoromethyl-phenyl)-1H-benzimidazole sodium salt] | – | 3 nM and 3.3 nM | inhibition at 0.2 µM [2]: 99%
CC(C)(C)c1cc(-c2nc3cc(-c4ccccc4OC(F)(F)F)cc(C(F)(F)F)c3[nH]2)on1 [Compound 143, 2-(3-tert-Butyl-isoxazol-5-yl)-5-(2-trifluoromethoxy-phenyl)-7-trifluoromethyl-1H-benzimidazole sodium salt] | – | 2.5 nM and 3.7 nM | inhibition at 0.2 µM [2]: 99%
CC(C)(C)c1cc(-c2nc3cc(-c4c(F)cccc4C(F)(F)F)cc(C(F)(F)F)c3[nH]2)on1 [Compound 144, 2-(3-tert-Butyl-isoxazol-5-yl)-5-(2-fluoro-6-trifluoromethyl-phenyl)-7-trifluoromethyl-1H-benzimidazole hydrochloride] | 99 | 3.9 nM and 4 nM | –
CC(C)(C)c1cc(-c2nc3cc(-c4c(F)cccc4OC(F)(F)F)cc(C(F)(F)F)c3[nH]2)on1 [Compound 145, 2-(3-tert-Butyl-isoxazol-5-yl)-5-(2-fluoro-6-trifluoromethoxy-phenyl)-7-trifluoromethyl-1H-benzimidazole sodium salt] | – | 3.7 nM and 8.1 nM | inhibition at 0.2 µM [2]: 100%
Cn1nc(C(C)(C)C)c(Cl)c1-c1nc2cc(-c3c(F)cccc3C#N)cc(C(F)(F)F)c2[nH]1 [Compound 146, 2-[2-(5-tert-Butyl-4-chloro-2-methyl-2H-pyrazol-3-yl)-7-trifluoromethyl-1H-benzimidazol-5-yl]-3-fluoro-benzonitrile hydrochloride] | 100 | 12.2 nM and 15 nM | –
Cn1nc(C(C)(C)C)c(C#N)c1-c1nc2cc(-c3ccccc3F)cc(C(F)(F)F)c2[n-]1.[Na+] [Compound 147, 3-tert-Butyl-5-[(5-(2-fluoro-phenyl)-7-trifluoromethyl-1H-benzimidazol-2-yl]-1-methyl-1H-pyrazole-4-carbonitrilesodium salt] | 100 | 5.9 nM and 4.8 nM and 5.1 nM | –
Cn1nc(C(C)(C)C)c(C#N)c1-c1nc2cc(-c3ccccc3F)cc(C(F)(F)F)c2[n-]1.[Na+] [Compound 147] | – | – | % Inh (%) @0.2 μM, in vitro TRP M8 Activity (sodium salt, 0.2 µM): 98%
Cl.Cn1nc(C(C)(C)C)c(C#N)c1-c1nc2cc(-c3ccccc3Cl)cc(C(F)(F)F)c2[nH]1 [Compound 148, 3-tert-Butyl-5-[5-(2-chloro-phenyl)-7-trifluoromethyl-1H-benzimidazol-2-yl]-1-methyl-1H-pyrazole-4-carbonitrile hydrochloride] | 100 | 5 nM and 4.1 nM and 2.9 nM | % Inh (%) @0.2 μM, in vitro TRP M8 Activity (hydrochloride, 0.2 µM): 99%
Cn1nc(C(C)(C)C)c(C#N)c1-c1nc2cc(-c3ccccc3C(F)(F)F)cc(C(F)(F)F)c2[nH]1.[Na] [Compound 149, 3-tert-Butyl-1-methyl-5-[7-trifluoromethyl-5-(2-trifluoromethyl-phenyl)-1H-benzimidazol-2-yl]-1H-pyrazole-4-carbonitrile sodium salt] | – | 3.8 nM and 5.1 nM and 3.2 nM | % Inh (%) @0.2 μM, in vitro TRP M8 Activity (sodium salt, 0.2 µM): 99%; inhibition at 0.2 µM [2]: 100%
Cn1nc(C(C)(C)C)c(C#N)c1-c1nc2cc(-c3ccccc3OC(F)(F)F)cc(C(F)(F)F)c2[nH]1.[Na] [Compound 150, 3-tert-Butyl-1-methyl-5-[5-(2-trifluoromethoxy-phenyl)-7-trifluoromethyl-1H-benzimidazol-2-yl]-1H-pyrazole-4-carbonitrile sodium salt] | – | 5.7 nM and 7.2 nM and 8.3 nM | % Inh (%) @0.2 μM, in vitro TRP M8 Activity: 100, 100%; inhibition at 0.2 µM [2]: 100%
Cn1nc(C(C)(C)C)c(C#N)c1-c1nc2cc(-c3c(F)cccc3F)cc(C(F)(F)F)c2[nH]1 [Compound 151, 3-tert-Butyl-5-[5-(2,6-difluoro-phenyl)-7-trifluoromethyl-1H-benzimidazol-2-yl]-1-methyl-1H-pyrazole-4-carbonitrile sodium salt] | – | 4.2 nM and 6 nM and 3.8 nM | –
Cn1nc(C(C)(C)C)c(C#N)c1-c1nc2cc(-c3c(F)cccc3C(F)(F)F)cc(C(F)(F)F)c2[nH]1.[Na] [Compound 152, 3-tert-Butyl-5-[5-(2-fluoro-6-trifluoromethyl-phenyl)-7-trifluoromethyl-1H-benzimidazol-2-yl]-1-methyl-1H-pyrazole-4-carbonitrile sodium salt] | – | 5.3 nM and 6.5 nM and 5 nM | % Inh (%) @0.2 μM, in vitro TRP M8 Activity (sodium salt, 0.2 µM): 99%; inhibition at 0.2 µM [2]: 100%
Cc1oc(C(C)(C)C)nc1-c1nc2cc(-c3ccccc3C(F)(F)F)cc(C(F)(F)F)c2[nH]1 [Compound 153, 2-(2-tert-Butyl-5-methyl-oxazol-4-yl)-7-trifluoromethyl-5-(2-trifluoromethyl-phenyl)-1H-benzimidazole hydrochloride] | 25 | – | –
Cc1oc(C(C)(C)C)nc1-c1nc2cc(-c3ccccc3F)cc(C(F)(F)F)c2[nH]1 [Compound 154, 2-(2-tert-Butyl-5-methyl-oxazol-4-yl)-5-(2-fluoro-phenyl)-7-trifluoromethyl-1H-benzimidazole hydrochloride] | 57 | – | –
Cc1oc(C(C)(C)C)nc1-c1nc2cc(-c3ccccc3Cl)cc(C(F)(F)F)c2[nH]1 [Compound 155, 2-(2-tert-Butyl-5-methyl-oxazol-4-yl)-5-(2-chloro-phenyl)-7-trifluoromethyl-1H-benzimidazole hydrochloride] | 59 | – | –
Cc1oc(C(C)(C)C)nc1-c1nc2cc(-c3ccccc3OC(F)(F)F)cc(C(F)(F)F)c2[nH]1 [Compound 156, 2-(2-tert-Butyl-5-methyl-oxazol-4-yl)-5-(2-trifluoromethoxy-phenyl)-7-trifluoromethyl-1H-benzimidazole hydrochloride] | 58 | – | –
Cc1oc(C(C)(C)C)nc1-c1nc2cc(-c3ccccc3)cc(C(F)(F)F)c2[nH]1 [Compound 157, 2-(2-tert-Butyl-5-methyl-oxazol-4-yl)-5-phenyl-7-trifluoromethyl-1H-benzimidazole hydrochloride] | 41 | – | –

Further lines, with some results ahead:

inhibition at 0.2 µM [1] [%] | IC50 | SMILES | other results
72 | – | Cc1oc(C(C)(C)C)nc1-c1nc2cc(-c3c(F)cccc3C(F)(F)F)cc(C(F)(F)F)c2[nH]1 [Compound 158, 2-(2-tert-Butyl-5-methyl-oxazol-4-yl)-5-(2-fluoro-6-trifluoromethyl-phenyl)-7-trifluoromethyl-1H-benzimidazole hydrochloride] | –
19 | – | Cc1oc(C(C)(C)C)nc1-c1nc2cc(-c3ccccc3OC(F)(F)F)cc(Cl)c2[nH]1 [Compound 159, 2-(2-tert-Butyl-5-methyl-oxazol-4-yl)-7-chloro-5-(2-trifluoromethoxy-phenyl)-1H-benzimidazole hydrochloride] | –
36 | – | Cc1oc(C(C)(C)C)nc1-c1nc2cc(-c3ccccc3F)cc(Cl)c2[nH]1 [Compound 161, 2-(2-tert-Butyl-5-methyl-oxazol-4-yl)-7-chloro-5-(2-fluoro-phenyl)-1H-benzimidazole hydrochloride] | –
62 | – | Cc1oc(C(C)(C)C)nc1-c1nc2cc(-c3ccccc3Cl)cc(Cl)c2[nH]1 [Compound 163, 2-(2-tert-Butyl-5-methyl-oxazol-4-yl)-7-chloro-5-(2-chloro-phenyl)-1H-benzimidazole hydrochloride] | –
27 | – | Cc1oc(C(C)(C)C)nc1-c1nc2cc(-c3ccccc3C(F)(F)F)cc(Cl)c2[nH]1 [Compound 165, 2-(2-tert-Butyl-5-methyl-oxazol-4-yl)-7-chloro-5-(2-trifluoromethyl-phenyl)-1H-benzimidazole hydrochloride] | –
100 | 9.8 nM | Cn1nc(C(C)(C)C)c(C#N)c1-c1nc2cc(-c3ccccc3F)cc(Cl)c2[nH]1 [Compound 167, 3-tert-Butyl-5-[7-chloro-5-(2-fluoro-phenyl)-1H-benzimidazol-2-yl]-1-methyl-1H-pyrazole-4-carbonitrile sodium salt] | –
100 | 8.2 nM | Cn1nc(C(C)(C)C)c(C#N)c1-c1nc2cc(-c3c(F)cccc3F)cc(Cl)c2[nH]1 [Compound 171, 3-tert-Butyl-5-[7-chloro-5-(2,6-difluoro-phenyl)-1H-benzimidazol-2-yl]-1-methyl-1H-pyrazole-4-carbonitrile sodium salt] | –
100 | 8.7 nM | Cn1nc(C(C)(C)C)c(C#N)c1-c1nc2cc(-c3c(F)cccc3C(F)(F)F)cc(Cl)c2[nH]1 [Compound 172, 3-tert-Butyl-5-[7-chloro-5-(2-fluoro-6-trifluoromethyl-phenyl)-1H-benzimidazol-2-yl]-1-methyl-1H-pyrazole-4-carbonitrile sodium salt] | –
100 | 10.7 nM | Cn1nc(C(C)(C)C)c(C#N)c1-c1nc2cc(-c3c(F)cccc3OC(F)(F)F)cc(Cl)c2[nH]1 [Compound 173, 3-tert-Butyl-5-[7-chloro-5-(2-fluoro-6-trifluoromethoxy-phenyl)-1H-benzimidazol-2-yl]-1-methyl-1H-pyrazole-4-carbonitrile sodium salt] | –
83 | 33.4 nM | Cc1oc(C(C)(C)C)cc1-c1nc2cc(-c3ccccc3F)ccc2[nH]1 [Compound 174, 2-(5-tert-Butyl-2-methyl-furan-3-yl)-5-(2-fluoro-phenyl)-1H-benzimidazole sodium salt] | –
